Numbers after ± are expanded uncertainties.
How the values were obtained:
[1] = Liquid; for viscosity / mass density: 101 kPa; for viscosity: Capillary tube (Ostwald / Ubbelohde) method; for mass density: Vibrating tube method
[2] = xn = mol fraction of the nth substance listed; conditions: 101 kPa, Liquid, x2 = 0; for viscosity: Capillary tube (Ostwald / Ubbelohde) method; for mass density: Vibrating tube method

## ClC(Cl)Cl [trichloromethane]
[1]; 283.15 K
  viscosity: 0.629 ± 0.005 mPa·s
  mass density: 1507.3 ± 0.7 kg/m3
[1]; 293.15 K
  viscosity: 0.573 ± 0.005 mPa·s
  mass density: 1488.4 ± 0.7 kg/m3
[1]; 303.15 K
  viscosity: 0.516 ± 0.005 mPa·s
  mass density: 1469.4 ± 0.6 kg/m3
  vapor or sublimation pressure: 32.19 ± 0.33 kPa
[1]; 313.15 K
  viscosity: 0.468 ± 0.004 mPa·s
  mass density: 1450 ± 0.6 kg/m3

## CC(=O)CC(C)C [4-methylpentan-2-one]
[1]; 283.15 K
  viscosity: 0.655 ± 0.006 mPa·s
  mass density: 809.8 ± 0.3 kg/m3
[1]; 293.15 K
  viscosity: 0.576 ± 0.005 mPa·s
  mass density: 800.7 ± 0.3 kg/m3
[1]; 303.15 K
  viscosity: 0.511 ± 0.005 mPa·s
  mass density: 791.6 ± 0.3 kg/m3
  vapor or sublimation pressure: 3.89 ± 0.11 kPa
[1]; 313.15 K
  viscosity: 0.46 ± 0.004 mPa·s
  mass density: 782.2 ± 0.3 kg/m3

## CC(=O)CC(C)C [4-methylpentan-2-one] + ClC(Cl)Cl
[2]; 283.15 K
  viscosity: 0.655 ± 0.006 mPa·s
  mass density: 809.8 ± 0.3 kg/m3
[2]; 293.15 K
  viscosity: 0.576 ± 0.005 mPa·s
  mass density: 800.7 ± 0.3 kg/m3
[2]; 303.15 K
  viscosity: 0.511 ± 0.005 mPa·s
  mass density: 791.6 ± 0.3 kg/m3
[2]; 313.15 K
  viscosity: 0.46 ± 0.004 mPa·s
  mass density: 782.2 ± 0.3 kg/m3
